# Tests used:
# Experiment in all cases: kinobeads assay with mass spectrometry detection of kinases (kinase selectivity profile)
# Type in all cases: binding
# kinases (kinome) [1] = target: T1, kinases (kinome) (Homo sapiens, UniProt P05771); conditions: PKCb (AGC), IPI00219628
# T1 construct: determined in kinobeads assays with mass spectrometry detection of kinases as described previously; endogenous in cells; host or cells: cell lysate
# Source text: (§1) The protein kinase complement of the human genome (the kinome) was described previously (Manning et al., 2002. Science 298(5600):1912-1934). Sequence accession numbers are defined by the International Protein Index (IPI) (Kersey et al., 2004. Proteomics 4(7):1985-1988).
# kinases (kinome) [2] = target: T2, kinases (kinome) (Homo sapiens, UniProt P10398); conditions: ARAF (TKL), IPI00020578
# T2 construct: determined in kinobeads assays with mass spectrometry detection of kinases as described previously; endogenous in cells; host or cells: cell lysate
# T2 sequence (P10398 1-606): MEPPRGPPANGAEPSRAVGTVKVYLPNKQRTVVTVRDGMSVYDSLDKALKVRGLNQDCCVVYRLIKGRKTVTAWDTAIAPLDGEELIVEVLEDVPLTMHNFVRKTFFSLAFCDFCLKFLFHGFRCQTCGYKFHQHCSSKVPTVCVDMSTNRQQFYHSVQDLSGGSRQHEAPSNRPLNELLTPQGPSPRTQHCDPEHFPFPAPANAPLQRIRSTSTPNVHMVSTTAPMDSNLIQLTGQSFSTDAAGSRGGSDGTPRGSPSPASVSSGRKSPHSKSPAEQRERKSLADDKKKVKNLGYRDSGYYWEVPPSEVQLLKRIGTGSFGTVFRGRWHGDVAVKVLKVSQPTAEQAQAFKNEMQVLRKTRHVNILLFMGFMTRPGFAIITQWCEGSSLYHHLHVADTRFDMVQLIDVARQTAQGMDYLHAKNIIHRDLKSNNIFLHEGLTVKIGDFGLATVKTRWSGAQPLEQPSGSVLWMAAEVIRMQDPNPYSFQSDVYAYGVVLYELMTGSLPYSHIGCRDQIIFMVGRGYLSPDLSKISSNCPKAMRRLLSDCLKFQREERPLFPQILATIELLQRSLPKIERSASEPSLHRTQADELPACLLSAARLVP
# Source text: as §1
# kinases (kinome) [3] = target: T3, kinases (kinome) (Homo sapiens, UniProt P12931); conditions: SRC (TK), IPI00328867
# T3 construct: determined in kinobeads assays with mass spectrometry detection of kinases as described previously; endogenous in cells; host or cells: cell lysate
# Source text: as §1
# kinases (kinome) [4] = target: T4, kinases (kinome) (Homo sapiens, UniProt P17252); conditions: PKCa (AGC), IPI00385449
# T4 construct: determined in kinobeads assays with mass spectrometry detection of kinases as described previously; endogenous in cells; host or cells: cell lysate
# Source text: as §1
# kinases (kinome) [5] = target: T5, kinases (kinome) (Homo sapiens, UniProt P48730); conditions: CK1d (CK1), IPI00011102
# T5 construct: determined in kinobeads assays with mass spectrometry detection of kinases as described previously; endogenous in cells; host or cells: cell lysate
# Source text: as §1
# kinases (kinome) [6] = target: T6, kinases (kinome) (Homo sapiens, UniProt P49674); conditions: CK1e (CK1), IPI00027729
# T6 construct: determined in kinobeads assays with mass spectrometry detection of kinases as described previously; endogenous in cells; host or cells: cell lysate
# Source text: as §1
# kinases (kinome) [7] = target: T7, kinases (kinome) (Homo sapiens, UniProt P53671); conditions: LIMK2 (TKL), IPI00025698
# T7 construct: determined in kinobeads assays with mass spectrometry detection of kinases as described previously; endogenous in cells; host or cells: cell lysate
# Source text: as §1
# kinases (kinome) [8] = target: T8, kinases (kinome) (Homo sapiens, UniProt Q04771); conditions: ALK2 (TKL), IPI00029219
# T8 construct: determined in kinobeads assays with mass spectrometry detection of kinases as described previously; endogenous in cells; host or cells: cell lysate
# T8 sequence (Q04771 21-509): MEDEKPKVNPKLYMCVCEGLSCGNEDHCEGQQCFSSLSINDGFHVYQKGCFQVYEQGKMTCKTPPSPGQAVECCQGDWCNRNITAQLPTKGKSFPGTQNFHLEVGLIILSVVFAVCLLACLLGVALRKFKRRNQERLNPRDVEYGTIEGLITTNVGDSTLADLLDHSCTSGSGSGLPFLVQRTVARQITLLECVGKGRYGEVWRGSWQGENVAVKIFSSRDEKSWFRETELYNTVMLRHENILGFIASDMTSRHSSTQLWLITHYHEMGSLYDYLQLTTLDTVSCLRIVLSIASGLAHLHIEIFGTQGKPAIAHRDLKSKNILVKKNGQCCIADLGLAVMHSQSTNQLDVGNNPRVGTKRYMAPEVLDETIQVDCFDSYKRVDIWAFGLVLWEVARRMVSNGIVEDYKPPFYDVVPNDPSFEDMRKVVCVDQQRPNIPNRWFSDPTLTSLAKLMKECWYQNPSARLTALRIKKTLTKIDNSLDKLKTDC
# Source text: as §1
# kinases (kinome) [9] = target: T9, kinases (kinome) (Homo sapiens, UniProt Q13131); conditions: AMPKa1 (CAMK), IPI00410287
# T9 construct: determined in kinobeads assays with mass spectrometry detection of kinases as described previously; endogenous in cells; host or cells: cell lysate
# Source text: as §1
# kinases (kinome) [10] = target: T10, kinases (kinome) (Homo sapiens, UniProt Q13233); conditions: MAP3K1 (STE), IPI00855985
# T10 construct: determined in kinobeads assays with mass spectrometry detection of kinases as described previously; endogenous in cells; host or cells: cell lysate
# Source text: as §1
# kinases (kinome) [11] = target: T11, kinases (kinome) (Homo sapiens, UniProt Q13315); conditions: ATM (Atypical), IPI00298306
# T11 construct: determined in kinobeads assays with mass spectrometry detection of kinases as described previously; endogenous in cells; host or cells: cell lysate
# Source text: as §1
# kinases (kinome) [12] = target: T12, kinases (kinome) (Homo sapiens, UniProt Q13555); conditions: CaMK2g (CAMK), IPI00908444
# T12 construct: determined in kinobeads assays with mass spectrometry detection of kinases as described previously; endogenous in cells; host or cells: cell lysate
# Source text: as §1
# kinases (kinome) [13] = target: T13, kinases (kinome) (Homo sapiens, UniProt Q13557); conditions: CaMK2d (CAMK), IPI00828081
# T13 construct: determined in kinobeads assays with mass spectrometry detection of kinases as described previously; endogenous in cells; host or cells: cell lysate
# Source text: as §1
# kinases (kinome) [14] = target: T14, kinases (kinome) (Homo sapiens, UniProt Q14289); conditions: PYK2 (TK), IPI00029702
# T14 construct: determined in kinobeads assays with mass spectrometry detection of kinases as described previously; endogenous in cells; host or cells: cell lysate
# Source text: as §1
# kinases (kinome) [15] = target: T15, kinases (kinome) (Homo sapiens, UniProt Q2M2I8); conditions: AAK1 (Other), IPI00916402
# T15 construct: determined in kinobeads assays with mass spectrometry detection of kinases as described previously; endogenous in cells; host or cells: cell lysate
# Source text: as §1
# kinases (kinome) [16] = target: T16, kinases (kinome) (Homo sapiens, UniProt Q92918); conditions: HPK1 (STE), IPI00020258
# T16 construct: determined in kinobeads assays with mass spectrometry detection of kinases as described previously; endogenous in cells; host or cells: cell lysate
# Source text: as §1
# kinases (kinome) [17] = target: T17, kinases (kinome) (Homo sapiens, UniProt Q96S53); conditions: TESK2 (TKL), IPI00102677
# T17 construct: determined in kinobeads assays with mass spectrometry detection of kinases as described previously; endogenous in cells; host or cells: cell lysate
# Source text: as §1
# kinases (kinome) [18] = target: T18, kinases (kinome) (Homo sapiens, UniProt Q9Y572); conditions: RIPK3 (TKL), IPI00847572
# T18 construct: determined in kinobeads assays with mass spectrometry detection of kinases as described previously; endogenous in cells; host or cells: cell lysate
# Source text: as §1
# T6 sequence (P49674 whole entry): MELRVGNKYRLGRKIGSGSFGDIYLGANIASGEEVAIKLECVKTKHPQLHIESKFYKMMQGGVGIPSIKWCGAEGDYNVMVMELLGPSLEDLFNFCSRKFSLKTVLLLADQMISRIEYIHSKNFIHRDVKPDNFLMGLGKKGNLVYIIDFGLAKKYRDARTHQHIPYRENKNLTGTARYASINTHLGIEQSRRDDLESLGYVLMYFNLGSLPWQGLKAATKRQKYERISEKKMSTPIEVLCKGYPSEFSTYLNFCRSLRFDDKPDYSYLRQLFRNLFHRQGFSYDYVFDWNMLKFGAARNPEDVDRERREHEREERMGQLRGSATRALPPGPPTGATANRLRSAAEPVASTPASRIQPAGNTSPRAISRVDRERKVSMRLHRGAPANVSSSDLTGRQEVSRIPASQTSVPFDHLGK
# T15 sequence (Q2M2I8 whole entry): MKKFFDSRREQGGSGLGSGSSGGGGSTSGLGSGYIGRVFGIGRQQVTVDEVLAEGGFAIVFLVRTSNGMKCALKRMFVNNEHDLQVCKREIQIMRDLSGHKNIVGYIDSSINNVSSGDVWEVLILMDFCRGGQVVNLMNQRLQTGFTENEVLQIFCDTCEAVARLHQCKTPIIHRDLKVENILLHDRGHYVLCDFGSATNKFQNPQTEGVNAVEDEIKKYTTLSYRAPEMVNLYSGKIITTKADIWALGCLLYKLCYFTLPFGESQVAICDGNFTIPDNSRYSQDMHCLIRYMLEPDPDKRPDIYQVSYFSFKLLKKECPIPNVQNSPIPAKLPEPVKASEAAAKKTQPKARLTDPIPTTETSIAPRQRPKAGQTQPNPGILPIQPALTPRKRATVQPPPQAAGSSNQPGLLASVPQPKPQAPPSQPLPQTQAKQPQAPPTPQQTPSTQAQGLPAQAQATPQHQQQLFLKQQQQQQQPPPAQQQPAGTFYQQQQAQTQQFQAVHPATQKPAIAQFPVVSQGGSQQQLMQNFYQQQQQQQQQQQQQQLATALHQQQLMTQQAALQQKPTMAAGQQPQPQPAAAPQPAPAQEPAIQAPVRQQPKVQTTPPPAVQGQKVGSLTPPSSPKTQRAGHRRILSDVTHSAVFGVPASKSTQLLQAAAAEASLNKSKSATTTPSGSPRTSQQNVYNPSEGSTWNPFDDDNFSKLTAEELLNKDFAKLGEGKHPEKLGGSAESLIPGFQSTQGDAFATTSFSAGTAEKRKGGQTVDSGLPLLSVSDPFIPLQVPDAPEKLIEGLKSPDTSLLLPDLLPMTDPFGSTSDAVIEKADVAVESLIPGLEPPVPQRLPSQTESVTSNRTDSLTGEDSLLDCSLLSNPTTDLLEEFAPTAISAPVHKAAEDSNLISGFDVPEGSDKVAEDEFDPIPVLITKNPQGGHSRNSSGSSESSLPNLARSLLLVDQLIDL
# T7 sequence (P53671 whole entry): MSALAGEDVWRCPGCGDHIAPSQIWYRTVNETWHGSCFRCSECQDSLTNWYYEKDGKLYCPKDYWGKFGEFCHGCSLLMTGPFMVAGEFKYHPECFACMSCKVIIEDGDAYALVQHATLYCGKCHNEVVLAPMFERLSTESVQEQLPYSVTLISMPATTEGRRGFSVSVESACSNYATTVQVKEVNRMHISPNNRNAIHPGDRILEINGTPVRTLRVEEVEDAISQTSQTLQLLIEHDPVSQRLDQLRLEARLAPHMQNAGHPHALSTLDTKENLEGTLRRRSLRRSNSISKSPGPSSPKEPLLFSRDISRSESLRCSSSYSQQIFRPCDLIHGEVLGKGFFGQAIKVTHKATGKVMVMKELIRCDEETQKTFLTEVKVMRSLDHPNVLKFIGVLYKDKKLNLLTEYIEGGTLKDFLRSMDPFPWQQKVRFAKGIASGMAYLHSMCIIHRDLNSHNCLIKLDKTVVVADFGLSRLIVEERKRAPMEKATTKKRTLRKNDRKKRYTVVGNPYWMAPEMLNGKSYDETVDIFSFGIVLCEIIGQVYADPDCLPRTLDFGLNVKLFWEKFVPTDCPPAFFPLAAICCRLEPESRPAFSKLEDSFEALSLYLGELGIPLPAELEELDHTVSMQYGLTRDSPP
# T16 sequence (Q92918 whole entry): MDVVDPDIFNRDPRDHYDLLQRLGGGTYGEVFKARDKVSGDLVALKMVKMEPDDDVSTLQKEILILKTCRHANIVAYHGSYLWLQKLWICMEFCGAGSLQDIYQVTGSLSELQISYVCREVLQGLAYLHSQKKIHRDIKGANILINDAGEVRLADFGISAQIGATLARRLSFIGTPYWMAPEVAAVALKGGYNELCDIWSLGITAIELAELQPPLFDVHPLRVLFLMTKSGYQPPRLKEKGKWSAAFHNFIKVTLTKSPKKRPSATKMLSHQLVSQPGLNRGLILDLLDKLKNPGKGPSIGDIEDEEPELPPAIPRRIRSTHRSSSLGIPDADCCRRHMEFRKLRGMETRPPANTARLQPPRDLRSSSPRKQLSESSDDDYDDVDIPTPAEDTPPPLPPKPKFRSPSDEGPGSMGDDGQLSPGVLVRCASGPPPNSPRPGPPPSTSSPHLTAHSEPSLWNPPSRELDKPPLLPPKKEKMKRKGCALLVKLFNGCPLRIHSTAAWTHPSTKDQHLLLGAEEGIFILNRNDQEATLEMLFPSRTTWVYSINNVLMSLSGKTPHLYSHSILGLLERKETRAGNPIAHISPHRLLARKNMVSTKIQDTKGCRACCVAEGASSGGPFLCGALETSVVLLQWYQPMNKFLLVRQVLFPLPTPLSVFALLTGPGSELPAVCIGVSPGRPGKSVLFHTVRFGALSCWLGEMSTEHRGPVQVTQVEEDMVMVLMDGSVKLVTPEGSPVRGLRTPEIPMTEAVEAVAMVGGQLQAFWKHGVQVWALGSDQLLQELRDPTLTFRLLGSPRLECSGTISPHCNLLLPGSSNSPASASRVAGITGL
# T9 sequence (Q13131 whole entry): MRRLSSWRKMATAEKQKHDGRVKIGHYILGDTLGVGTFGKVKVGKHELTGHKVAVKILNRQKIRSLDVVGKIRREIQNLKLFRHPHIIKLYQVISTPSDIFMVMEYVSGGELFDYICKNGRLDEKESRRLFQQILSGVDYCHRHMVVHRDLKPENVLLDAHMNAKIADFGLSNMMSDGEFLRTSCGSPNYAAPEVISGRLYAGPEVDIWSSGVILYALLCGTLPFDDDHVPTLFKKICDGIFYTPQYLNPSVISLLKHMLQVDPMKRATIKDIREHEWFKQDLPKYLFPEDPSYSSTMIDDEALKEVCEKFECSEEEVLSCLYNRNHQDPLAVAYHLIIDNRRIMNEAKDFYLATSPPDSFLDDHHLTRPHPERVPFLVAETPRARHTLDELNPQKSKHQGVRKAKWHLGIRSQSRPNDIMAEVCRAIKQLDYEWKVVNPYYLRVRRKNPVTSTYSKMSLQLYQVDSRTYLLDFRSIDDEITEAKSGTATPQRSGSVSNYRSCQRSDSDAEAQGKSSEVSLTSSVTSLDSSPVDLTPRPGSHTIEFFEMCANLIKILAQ
# T13 sequence (Q13557 whole entry): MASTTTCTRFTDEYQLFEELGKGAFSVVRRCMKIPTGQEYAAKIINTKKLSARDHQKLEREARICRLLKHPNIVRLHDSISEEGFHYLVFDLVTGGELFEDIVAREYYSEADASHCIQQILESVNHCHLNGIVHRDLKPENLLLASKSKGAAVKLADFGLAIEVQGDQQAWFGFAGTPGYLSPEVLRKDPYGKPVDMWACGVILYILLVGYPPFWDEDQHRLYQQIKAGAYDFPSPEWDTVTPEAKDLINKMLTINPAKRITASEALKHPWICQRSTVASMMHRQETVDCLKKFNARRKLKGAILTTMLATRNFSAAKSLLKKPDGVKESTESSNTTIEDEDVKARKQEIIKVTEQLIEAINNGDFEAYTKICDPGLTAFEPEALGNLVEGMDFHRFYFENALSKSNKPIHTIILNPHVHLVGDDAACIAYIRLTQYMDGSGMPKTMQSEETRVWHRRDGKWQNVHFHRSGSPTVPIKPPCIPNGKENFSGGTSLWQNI
# T12 sequence (Q13555 whole entry): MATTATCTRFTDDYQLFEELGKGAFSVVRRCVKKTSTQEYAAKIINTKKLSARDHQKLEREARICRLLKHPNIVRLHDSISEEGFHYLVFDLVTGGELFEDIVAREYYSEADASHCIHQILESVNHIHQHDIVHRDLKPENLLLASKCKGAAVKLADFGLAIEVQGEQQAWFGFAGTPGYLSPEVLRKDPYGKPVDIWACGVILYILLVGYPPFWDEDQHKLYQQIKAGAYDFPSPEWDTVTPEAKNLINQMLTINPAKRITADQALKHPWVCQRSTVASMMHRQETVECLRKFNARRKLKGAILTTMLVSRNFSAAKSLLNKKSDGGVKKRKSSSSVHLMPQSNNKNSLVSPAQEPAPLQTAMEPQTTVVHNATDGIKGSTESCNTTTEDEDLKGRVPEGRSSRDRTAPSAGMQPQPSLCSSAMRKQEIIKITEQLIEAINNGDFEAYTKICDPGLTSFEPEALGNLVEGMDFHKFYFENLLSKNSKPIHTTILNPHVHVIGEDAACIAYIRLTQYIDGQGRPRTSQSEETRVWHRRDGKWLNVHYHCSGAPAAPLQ
# T18 sequence (Q9Y572 whole entry): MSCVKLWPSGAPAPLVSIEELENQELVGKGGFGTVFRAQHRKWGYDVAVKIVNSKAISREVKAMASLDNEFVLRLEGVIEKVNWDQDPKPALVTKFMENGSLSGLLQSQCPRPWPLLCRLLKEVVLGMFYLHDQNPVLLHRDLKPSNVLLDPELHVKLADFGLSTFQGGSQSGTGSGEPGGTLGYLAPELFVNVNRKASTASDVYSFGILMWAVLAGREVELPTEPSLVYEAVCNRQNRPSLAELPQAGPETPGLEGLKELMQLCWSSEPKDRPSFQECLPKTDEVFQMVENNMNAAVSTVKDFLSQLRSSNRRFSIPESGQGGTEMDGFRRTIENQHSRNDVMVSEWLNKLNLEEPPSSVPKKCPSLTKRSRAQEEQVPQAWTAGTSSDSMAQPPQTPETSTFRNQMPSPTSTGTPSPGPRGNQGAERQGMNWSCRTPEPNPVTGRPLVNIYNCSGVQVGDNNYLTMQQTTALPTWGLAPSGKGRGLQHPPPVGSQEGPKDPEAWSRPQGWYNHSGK
SMILES,IC50 (kinases (kinome) [1]),IC50 (kinases (kinome) [2]),IC50 (kinases (kinome) [3]),IC50 (kinases (kinome) [4]),IC50 (kinases (kinome) [5]),IC50 (kinases (kinome) [6]),IC50 (kinases (kinome) [7]),IC50 (kinases (kinome) [8]),IC50 (kinases (kinome) [9]),IC50 (kinases (kinome) [10]),IC50 (kinases (kinome) [11]),IC50 (kinases (kinome) [12]),IC50 (kinases (kinome) [13]),IC50 (kinases (kinome) [14]),IC50 (kinases (kinome) [15]),IC50 (kinases (kinome) [16]),IC50 (kinases (kinome) [17]),IC50 (kinases (kinome) [18])
"C[C@H]1COCCN1c1nc(-c2ccc(NC(=O)NC3CC3)cc2)cc(-c2ccccc2S(C)(=O)=O)n1 [Example 4, (S)-1-cyclopropyl-3-(4-(2-(3-methylmorpholino)-6-(2-(methylsulfonyl)phenyl)pyrimidin-4-yl)phenyl)urea]",> 10 µM,> 10 µM,> 10 µM,> 10 µM,> 10 µM,> 10 µM,> 10 µM,> 10 µM,> 10 µM,> 10 µM,> 10 µM,> 10 µM,> 10 µM,> 10 µM,> 10 µM,> 10 µM,> 10 µM,> 10 µM
"C[C@H]1COCCN1c1nc(-c2ccc(NC(=O)N[C@H]3CCC[C@@H]3O)cc2)cc(-c2cc(F)ccc2S(C)(=O)=O)n1 [Example 76, 1-(4-(6-(5-fluoro-2-(methylsulfonyl)phenyl)-2-((S)-3-methylmorpholino)pyrimidin-4-yl)phenyl)-3-((1S,2S)-2-hydroxycyclopentyl)urea]",> 10 µM,> 10 µM,> 10 µM,> 10 µM,,> 10 µM,> 10 µM,> 10 µM,> 10 µM,> 10 µM,> 10 µM,> 10 µM,> 10 µM,> 10 µM,> 10 µM,> 10 µM,> 10 µM,> 10 µM
"C[C@H]1COCCN1c1cc(-c2ccccn2)nc(-c2ccc(NC(=O)NCCO)cc2)n1 [Example 43, (S)-1-(2-hydroxyethyl)-3-(4-(4-(3-methylmorpholino)-6-(pyridin-2-yl)pyrimidin-2-yl)phenyl)urea]",> 10 µM,> 10 µM,> 10 µM,> 10 µM,> 10 µM,> 10 µM,> 10 µM,> 10 µM,> 10 µM,> 10 µM,> 10 µM,> 10 µM,> 10 µM,> 10 µM,> 10 µM,> 10 µM,> 10 µM,> 10 µM
"C[C@H]1COCCN1c1nc(-c2ccc(NC(=O)NC3CC3)cc2)cc(-c2cc(F)ccc2S(C)(=O)=O)n1 [Example 40, (S)-1-cyclopropyl-3-(4-(6-(5-fluoro-2-(methylsulfonyl)phenyl)-2-(3-methylmorpholino)pyrimidin-4-yl)phenyl)urea]",> 10 µM,> 10 µM,> 10 µM,> 10 µM,> 10 µM,> 10 µM,> 10 µM,> 10 µM,> 10 µM,> 10 µM,> 10 µM,> 10 µM,> 10 µM,> 10 µM,> 10 µM,> 10 µM,> 10 µM,> 10 µM

# Other lines, results leading:
IC50 (kinases (kinome) [1]),IC50 (kinases (kinome) [2]),IC50 (kinases (kinome) [3]),IC50 (kinases (kinome) [4]),IC50 (kinases (kinome) [5]),IC50 (kinases (kinome) [6]),IC50 (kinases (kinome) [7]),IC50 (kinases (kinome) [8]),IC50 (kinases (kinome) [9]),IC50 (kinases (kinome) [10]),IC50 (kinases (kinome) [11]),IC50 (kinases (kinome) [12]),IC50 (kinases (kinome) [13]),IC50 (kinases (kinome) [14]),IC50 (kinases (kinome) [15]),IC50 (kinases (kinome) [16]),IC50 (kinases (kinome) [17]),IC50 (kinases (kinome) [18]),SMILES
> 10 µM,> 10 µM,> 10 µM,> 10 µM,> 10 µM,> 10 µM,> 10 µM,> 10 µM,> 10 µM,> 10 µM,> 10 µM,> 10 µM,> 10 µM,> 10 µM,> 10 µM,> 10 µM,> 10 µM,> 10 µM,"C[C@H]1COCCN1c1cc(-c2ccccc2S(C)(=O)=O)nc(-c2ccc(NC(=O)NC3CC3)cc2)n1 [Example 6, (S)-1-cyclopropyl-3-(4-(4-(3-methylmorpholino)-6-(2-(methylsulfonyl)phenyl)pyrimidin-2-yl)phenyl)urea]"
> 10 µM,> 10 µM,> 10 µM,> 10 µM,> 10 µM,> 10 µM,> 10 µM,> 10 µM,> 10 µM,> 10 µM,> 10 µM,> 10 µM,> 10 µM,> 10 µM,> 10 µM,> 10 µM,> 10 µM,> 10 µM,"CCNC(=O)Nc1ccc(-c2cc(-c3ccccc3C#N)nc(N3CCOC[C@@H]3C)n2)cc1 [Example 8, (S)-1-(4-(6-(2-cyanophenyl)-2-(3-methylmorpholino)pyrimidin-4-yl)phenyl)-3-ethylurea]"
> 10 µM,> 10 µM,> 10 µM,> 10 µM,> 10 µM,> 10 µM,> 10 µM,> 10 µM,> 10 µM,> 10 µM,> 10 µM,> 10 µM,> 10 µM,> 10 µM,> 10 µM,> 10 µM,> 10 µM,> 10 µM,"C[C@H]1COCCN1c1nc(-c2ccc(NC(=O)NC3CC3)cc2)cc(-c2cccnc2S(C)(=O)=O)n1 [Example 46, (S)-1-cyclopropyl-3-(4-(2-(3-methylmorpholino)-6-(2-(methylsulfonyl)pyridin-3-yl)pyrimidin-4-yl)phenyl)urea]"

# Source: patent publication US9249129B2, “Morpholino substituted urea derivatives as mTOR inhibitors” (CELLZOME LIMITED, priority 2010, dated 2016)
